Laboratory results published in PubChem BioAssay AID651809 (Broad Institute, 2012).
Several values for one entry are separate records, joined by “and”; a condition that tells them apart may be missing. Equal entries are not always repeated. Activity calls are given as the source filed them. The rule behind the calls is not given here.

test system: not listed separately; experiment: Light production activators, luxS cqsA deficient V. cholerae strain, confirmatory dry powder (AID 651809); details: V. cholerae BH1578 lux reporter, luminescence, 6 h; at 35 µM (top of the series)

SMILES	activation
O=C(O)Cc1ccc(-c2ccccc2)cc1	0.008% (inactive)
CCn1nnc(NCc2ccccc2)n1	0.35% (inactive)
O=C(Cc1ccc(F)cc1)NC1CCCC1	0.012% (inactive)
Cn1nnc(NCc2ccccc2)n1	-0.02% (inactive)
O=C(Cc1cccc(F)c1)NC1CCCC1	0.009% (inactive)
O=C(Cc1ccc(Cl)cc1)NC1CCCC1	0.645% (inactive)
CC(C)c1ccc(CNc2nnn(C)n2)cc1	0.033% (inactive)
O=C(Cc1cccnc1)NC1CCCC1	-0.043% (inactive)
Cc1cccc(CC(=O)NC2CCCC2)c1	0.44% (inactive)
Cn1nnc(NCc2ccc(N3CCCC3)cc2)n1	0.034% (inactive)
O=C(Cc1ccccc1I)NC1CCCC1	0.012% (inactive)
O=C(Cc1ccccc1Cl)NC1CCCC1	0.002% (inactive)
CCn1nnnc1NCc1cccn1C	-0.015% (inactive)
CCn1nnc(NCc2ccc(N3CCCC3)cc2)n1	-0.042% (inactive) and -0.061% (inactive)
CCn1nnc(NCc2ccc(C(C)C)cc2)n1	0.061% (inactive)
O=C(Cc1ccc(-c2ccccc2)cc1)N1CCC1	1.77% (inactive)
c1ccc(-c2ccc(CCNC3CCCC3)cc2)cc1	-0.024% (inactive)
CN(C(=O)Cc1ccc(-c2ccccc2)cc1)C1CCCC1	0.648% (inactive)
Cc1ccc(CC(=O)NC2CCCC2)cc1	0.967% (inactive)
O=C(Cc1ccccc1C(F)(F)F)NC1CCCC1	0.015% (inactive)
O=C(NC1CCCC1)Oc1ccc(-c2ccccc2)cc1	-0.045% (inactive)
Cn1nnnc1NCc1ccc(C(F)(F)F)cc1	0.204% (inactive)
CN(Cc1ccc(N2CCCC2)cc1)c1nnn(C)n1	-0.005% (inactive)
CC(C)n1nnc(NCc2ccc(N3CCCC3)cc2)n1	-0.029% (inactive)
O=C(Cc1ccc(-c2ccccc2)cc1)NC1CCCCC1	10.4% (inactive)
CN(C)C(=O)Cc1ccc(-c2ccccc2)cc1	0.185% (inactive)

SMILES	activation
O=C(NCc1ccc(-c2ccccc2)cc1)C1CCCC1	0.158% (inactive) and 0.134% (inactive)
CN1CCN(C(=O)Cc2ccc(-c3ccccc3)cc2)CC1	-0.018% (inactive)
CS(=O)(=O)c1ccc(CC(=O)NC2CCCC2)cc1	-0.009% (inactive)
CC(C)n1nnnc1NCc1ccc(N2CCCC2)cc1	133% (inactive)
O=C(CCc1ccc(-c2ccccc2)cc1)NC1CCCC1	-0.057% (inactive)
O=C(Cc1ccc(C(F)(F)F)cc1)NC1CCCC1	0.008% (inactive)
CC(C(=O)NC1CCCC1)c1ccc(-c2ccccc2)cc1 (stereo not given)	-0.069% (inactive)
COc1ccc(CC(=O)NC2CCCC2)cc1	2.06% (inactive)
O=C(Cc1ccc(-c2ccccc2)cc1)NCc1ccccc1	0.004% (inactive)
CCN(Cc1ccc(N2CCCC2)cc1)c1nnnn1CC	1.22% (inactive)
CCc1ccc(C(=O)Nc2nnnn2CC)cc1	-0.042% (inactive)
COc1ccccc1CC(=O)NC1CCCC1	0.627% (inactive)
O=C(Cc1ccccc1)NC1CCCC1	-0.05% (inactive)
Cn1nnnc1NCc1ccccc1	-0.011% (inactive)
O=C(Cc1ccccn1)NC1CCCC1	0.07% (inactive)
O=C(Cc1ccc(-c2ccccc2)cc1)N1CC(F)(F)C1	1.11% (inactive)
O=C(Cc1ccncc1)NC1CCCC1	0.026% (inactive)
O=C(Cc1ccccc1F)NC1CCCC1	0.011% (inactive)
N#Cc1cccc(CC(=O)NC2CCCC2)c1	-0.04% (inactive)
O=C(Cc1ccc2ccccc2c1)NC1CCCC1	1.41% (inactive)
O=C(Cc1ccc(OC(F)(F)F)cc1)NC1CCCC1	1.25% (inactive)
O=C(Cc1ccc(-c2ccncc2)cc1)NC1CCCC1	1.61% (inactive)
Cn1nnc(NCc2ccc(C(F)(F)F)cc2)n1	1.48% (inactive)
CN1CCC(NC(=O)Cc2ccc(-c3ccccc3)cc2)CC1	3.34% (inactive)
CCn1nnnc1NC(=O)c1ccc(N2CCCC2)cc1	0.669% (inactive)
O=C(Cc1cccc(Cl)c1)NC1CCCC1	0.144% (inactive)

SMILES	activation
CNC(=O)Cc1ccc(-c2ccccc2)cc1	0.578% (inactive)
O=C(Cc1ccc(-c2ccccc2)cc1)N1CCC(F)(F)CC1	-0.007% (inactive)
O=C(Cc1ccccc1-c1ccccc1)NC1CCCC1	-0.016% (inactive)
O=C(Cc1cccc(C(F)(F)F)c1)NC1CCCC1	0.024% (inactive)
CCn1nnc(NCc2ccc(C(F)(F)F)cc2)n1	-0.033% (inactive)
O=C(Nc1ccc(-c2ccccc2)cc1)NC1CCCC1	0.069% (inactive)
c1ccc(CNc2nn[nH]n2)cc1	0.04% (inactive)
O=C(Cc1ccccc1OC(F)(F)F)NC1CCCC1	0.011% (inactive)
O=C(Cc1ccc(-c2ccccc2)cc1)N1CCCCC1	-0.022% (inactive)
CC(C)(C)OC(=O)N1CCC(NC(=O)Cc2ccc(-c3ccccc3)cc2)CC1	-0.022% (inactive)
O=C(Cc1ccc(-c2cccnc2)cc1)NC1CCCC1	15.8% (inactive)
O=C(Cc1ccc(-c2ccccc2)cc1)NCC1CCCC1	0.056% (inactive)
O=C(Cc1cccc(OC(F)(F)F)c1)NC1CCCC1	1.1% (inactive)
c1cc(N2CCCC2)ccc1CNc1nn[nH]n1	-0.038% (inactive)
CC(C)c1ccc(CNc2nn[nH]n2)cc1	0.032% (inactive)
O=C(Cc1ccc(-c2ccccc2)cc1)N1CCOCC1	0.215% (inactive)
O=C(Cc1cccc(-c2ccccc2)c1)NC1CCCC1	18% (inactive)
CS(=O)(=O)c1cccc(CC(=O)NC2CCCC2)c1	0.049% (inactive)
O=C(Cc1ccc(-c2ccccc2)cc1)N1CCCC1	0.018% (inactive)
FC(F)(F)c1ccc(CNc2nn[nH]n2)cc1	-0.017% (inactive)
N#Cc1ccc(CC(=O)NC2CCCC2)cc1	-0.056% (inactive)
O=C(Cc1ccc(-c2ccccc2)cc1)NC1CCNCC1	0.085% (inactive)
O=C(Cc1ccc(-c2ccccc2)cc1)Nc1ccccc1	0.038% (inactive)
CN(Cc1ccc(N2CCCC2)cc1)c1nnnn1C	14.6% (inactive)
COc1cccc(CC(=O)NC2CCCC2)c1	-0.014% (inactive)
CCn1nnnc1NCc1ccccc1	0.115% (inactive)

test system: V. cholerae BH1578 lux reporter, luminescence, 6 h; experiment: as above; details: not given

SMILES	AC40
CCn1nnnc1NCc1ccc(N2CCCC2)cc1	0.149 µM and < 0.135 µM
CCn1nnnc1NCc1ccc(C(F)(F)F)cc1	17.8 µM
O=C(Cc1ccc(-c2ccccc2)cc1)NC1CCOCC1	5.66 µM
Cn1nnnc1NCc1ccc(N2CCCC2)cc1	1.03 µM
Cc1ccc2cc3c(NC(=O)c4ccco4)nn(C)c3nc2c1	10.4 µM
CCCn1nnnc1NCc1ccc(C(C)C)cc1	0.529 µM
CCC(C)NC(=O)Cc1ccc(-c2ccccc2)cc1 (stereo not given)	5.16 µM
CC(C)c1ccc(CNc2nnnn2C)cc1	4.17 µM
CCNC(=O)Cc1ccc(-c2ccccc2)cc1	> 35 µM (inactive)
CC(C)NC(=O)Cc1ccc(-c2ccccc2)cc1	1.9 µM
O=C(Nc1nnc(-c2ccc3c(c2)OCCO3)o1)C1CCCCC1	2.29 µM
CCn1nnnc1NCc1ccc(C(C)C)cc1	0.187 µM
Cc1ccccc1CC(=O)NC1CCCC1	7.56 µM
CCC(CC)NC(=O)Cc1ccc(-c2ccccc2)cc1	4.42 µM
O=C(Cc1ccc(-c2ccccn2)cc1)NC1CCCC1	10.5 µM
O=C(Cc1ccc(-c2ccccc2)cc1)NC1CCCC1	0.89 µM and 0.645 µM
O=C(Cc1ccc(-c2ccccc2)cc1)NC1CCC1	0.499 µM
